{"source": "patent US12558396B2", "about": "“Use of cyclo(His-Pro) (CHP) for preventing, alleviating or treating peritoneal fibrosis” (NOVMETAPHARMA CO., LTD., priority 2019, dated 2026)", "assay_type_in_all_cases": "in vivo, C57BL/6 male mice", "key": {"[1]": {"tested_on": "animal model of peritoneal fibrosis", "experiment": "Peritoneal tissue staining (PAS, Masson's trichrome, Sirius red) in animal model of peritoneal fibrosis", "conditions": "FIG. 1", "protocol": "(§1) In order to create an animal model of peritoneal fibrosis, 7-week-old C57BL/6 male mice were purchased from Koatech and bred under constant conditions (temperature: 22±2° C., relative humidity: 55±10%, circadian cycle: 12 hours). Five animals were grouped into one group, and water and food were freely supplied in cages, and they were used in the experiment after acclimatization for one week before the experiment. After the acclimatization period, 0.1% chlorohexidine was administered by intraperitoneal injection every 3 days for 30 days to establish an animal model of peritoneal fibrosis. […] Group 3 was orally administrated with CHP at a concentration of 17.5 mg/kg (CG-PD+CHP(17.5)), and Group 4 was orally administered with CHP at a concentration of 35 mg/kg (CG-PD+CHP(35)) through 1 mL syringes every day for 30 days.\nAmong the experimental animals designed in Example 1-1, the peritoneum was obtained from the mice of the groups administered with the drug and 0.1% chlorohexidine for 30 days from the xyphoid process to the upper part of the pelvic cavity, and then sacrificed with whole blood. From the skin to the parietal peritoneum, the tissues of the left abdomen were excised in a size of 0.5×1.0 cm, and some were fixed in 10% formalin for immunostaining and then embedded in paraffin. The tissue sections were cut to a thickness of 4 μm and evaluated by performing Periodic acid-Schiff (PAS) staining, Masson's trichrome (MT) staining and Sirius Red staining to check the degree of peritoneal fibrosis. After observation with an optical microscope, photographs were taken (Olympus BX-50, Olympus Optical, Tokyo, Japan)."}, "[2]": {"tested_on": "animal model of peritoneal fibrosis", "experiment": "Immunohistochemical staining of ICAM-1 and F4/80 in peritoneum of animal model of peritoneal fibrosis", "conditions": "CHP 17.5 and 35 mg/kg orally, 30 days, vs CG-PD, FIG. 2", "protocol": "as §1\nPeritoneal tissues were extracted from the mice of each group of Example 1-1, fixed in 10% formalin for immunostaining and then embedded in paraffin. Using the streptavidin biotin peroxidase (Vector Laboratories) method, these were reacted with each of the anti-ICAM1 antibody and the […] at 4° C. for 16 hours, followed by color development with diaminobenzidine tetrahydrochloride (DAB) to confirm the expressions."}, "[3]": {"tested_on": "animal model of peritoneal fibrosis", "experiment": "Western blot of collagen 1, αSMA, p16 and p21 in peritoneal tissue of animal model of peritoneal fibrosis", "conditions": "Western blot corrected by GAPDH, CHP 17.5 and 35 mg/kg orally, vs CG-PD, FIGS. 3a", "protocol": "as §1\nIsoflurane which is necessary for anesthesia and dissection of mice in each group of Example 1-1 was purchased from Hana Pharm, and VetEquip's RC2 Rodent Circuit Controller Anesthesia System was prepared. Phosphate-buffered saline (PBS) was purchased from Hyclone. In order to isolate the peritoneal tissue of the mice, the mice were anesthetized by respiratory anesthesia with 3 to 3.5% isoflurane. After blood was drawn from the heart of anesthetized mice, the peritoneal tissue was immediately removed, washed with PBS, and 50 mg of the peritoneal tissue was cut out and placed in 500 μL of RIPA buffer containing protease and phosphatase inhibitors, and it was crushed using IKA's T10 homogenizer. After standing on ice for 15 minutes, centrifugation was performed at 15000 rpm at 4° C. The supernatant was collected and the protein concentration was measured by BCA quantitation, and in the same amount of the samples, the protein was separated using the Bolt™ protein gel electrophoresis system, and then transferred to a nitrocellulose membrane. The membrane was blocked with 5% skim milk at room temperature for 1 hour, and then reacted with primary antibodies collagen 1, αSMA, NRF2, p16, p21 and GAPDH antibodies overnight at 4° C. After washing 3 times for 10 minutes with TBST, the reaction was performed with the secondary antibodies at room temperature for 1 hour. After washing 3 times for 10 minutes with TBST, the expression level was measured by reacting with ECL. The size of the appearing band was quantified using the ImageJ program, and each band size value was divided by the GAPDH band size value and corrected. Statistical significance was analyzed using Student's t-test statistical method with the peritoneal fibrosis control group (CG-PD) (*p<0.05, […], ***p<0.0005)."}, "[4]": {"tested_on": "animal model of peritoneal fibrosis", "experiment": "Real-time PCR of collagen 1, p21 and E-cadherin in peritoneal tissue of animal model of peritoneal fibrosis", "conditions": "real-time PCR corrected by GAPDH, CHP 17.5 and 35 mg/kg orally, vs CG-PD", "protocol": "as §1\nIsoflurane which is necessary for anesthesia and dissection of mice in each group of Example 1-1 was purchased from Hana Pharma, and VetEquip's RC2 Rodent Circuit Controller Anesthesia System was prepared. Phosphate-buffered saline (PBS) was purchased from Hyclone. In order to isolate the peritoneal tissue of the mice, the mice were anesthetized by respiratory anesthesia with 3 to 3.5% isoflurane. After blood was drawn from the heart of the anesthetized mice, the peritoneal tissue was immediately removed, 50 mg of the peritoneum was cut, 500 μL of NucleoZOL was added, and then it was crushed using IKA's T10 homogenizer. Subsequently, RNA was extracted according to NucleoZOL's total RNA isolation protocol, and cDNA was synthesized from 1 μg of RNA by reverse transcription polymerase chain reaction using the iScript cDNA synthesis kit. The synthesized cDNA was analyzed by real-time PCR with iQ SYBR Green Supermix using forward/reverse primer sets corresponding to each gene. The expression value of each gene was corrected by dividing by the expression value of GAPDH, a housekeeping gene. Statistical significance was analyzed using Student's t-test statistical method with the peritoneal fibrosis control group (CG-PD) (*p<0.05, […], ***p<0.0005)."}}, "data": [{"smiles": "O=C1N[C@@H](Cc2cnc[nH]2)C(=O)N2CCC[C@@H]12", "note": "[CHP, cyclo(His-Pro)]", "values": [{"measurement": "thickened peritoneal layer (MT staining)", "setting": "[1]; CHP 35 mg/kg administration group compared to 17.5 mg/kg administration group, oral, daily, 30 days", "value": "significantly reduced"}, {"measurement": "deposition of immune cells (PAS staining)", "setting": "[1]; CHP 17.5 and 35 mg/kg orally every day for 30 days, 0.1% chlorohexidine i.p. model, vs fibrosis control group (CG-PD)", "value": "significantly reduced in a concentration-dependent manner"}, {"measurement": "accumulation of extracellular matrix (ECM) collagen (Sirius red staining)", "setting": "[1]; CHP 17.5 and 35 mg/kg orally every day for 30 days", "value": "significantly reduced in a concentration-dependent manner"}, {"measurement": "expression level of ICAM-1 (IHC)", "setting": "[2]", "value": "decreased"}, {"measurement": "infiltration of immune cells (f4/80-positive cells, IHC)", "setting": "[2]", "value": "rapidly decreased"}, {"measurement": "extracellular matrix collagen (collagen 1) protein expression", "setting": "[3]; 3b", "value": "statistically significantly decreased"}, {"measurement": "α-SMA protein expression", "setting": "[3]; 3c", "value": "statistically significantly decreased"}, {"measurement": "p16 protein expression", "setting": "[3]; 3e", "value": "significantly reduced"}, {"measurement": "p21 protein expression", "setting": "[3]; 3d", "value": "significantly reduced"}, {"measurement": "mRNA expression of extracellular matrix collagen 1", "setting": "[4]; FIG. 4a", "value": "decreased"}, {"measurement": "p21 gene expression", "setting": "[4]; FIG. 4b", "value": "significantly reduced"}, {"measurement": "expression level of E-cadherin (gene)", "setting": "[4]; FIG. 4c", "value": "significantly increased"}]}]}
